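Cultured in 96-well plates, cells were exposed to test compound for 48 hours across five concentrations. GI50 is the concentration that inhibits growth by half. TGI: total growth inhibition.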
How the values were obtained:
Assay in all cases: growth of human tumour cells (NCI), 48 h
A498 renal = test system: A498 renal
A549 NSCLC = test system: A549 NSCLC
CAKI-1 renal = test system: CAKI-1 renal
NCI-H460 lung = test system: NCI-H460 lung
RXF 393 renal = test system: RXF 393 renal
SF-268 CNS = test system: SF-268 CNS
SF-539 CNS = test system: SF-539 CNS
MCF7 breast = test system: MCF7 breast
MDA-MB-231 breast = test system: MDA-MB-231 breast
T-47D breast = test system: T-47D breast

| Structure (SMILES) | TGI (A498 renal) | TGI (A549 NSCLC) | TGI (CAKI-1 renal) | TGI (NCI-H460 lung) | TGI (RXF 393 renal) | TGI (SF-268 CNS) | TGI (SF-539 CNS) | TGI (MCF7 breast) | TGI (MDA-MB-231 breast) | TGI (T-47D breast) | GI50 (A498 renal) | GI50 (A549 NSCLC) | GI50 (CAKI-1 renal) | GI50 (MCF7 breast) | GI50 (MDA-MB-231 breast) | GI50 (NCI-H460 lung) | GI50 (RXF 393 renal) | GI50 (SF-268 CNS) | GI50 (SF-539 CNS) | GI50 (T-47D breast) |
| --- | --- | --- | --- | --- | --- | --- | --- | --- | --- | --- | --- | --- | --- | --- | --- | --- | --- | --- | --- | --- |
| Cc1oc2c(C)c3oc(=O)cc(C)c3cc2c1CN1C(=O)C2OCCOCCOCCOCCOCCO[C@H]2C1=O (stereo partly drawn) | > 100 µM | > 100 µM | > 100 µM | > 100 µM | > 100 µM | > 100 µM | > 100 µM |  |  |  |  |  |  |  |  |  |  |  |  |  |
| O=C(CC(=O)C1=CNc2ccccc2S1)C(=O)Nc1ccc(Cl)cc1 | > 50 µM | > 50 µM | > 50 µM | > 50 µM | > 50 µM | > 50 µM | > 50 µM |  |  |  |  |  |  |  |  |  |  |  |  |  |
| COC1OC(CBr)C(OC(=O)c2ccccc2)C(O)C1Br (stereo not drawn) | > 100 µM | > 100 µM | > 100 µM | > 100 µM | > 100 µM | > 100 µM | > 100 µM |  |  |  |  |  |  |  |  |  |  |  |  |  |
| COc1c(O)cc2oc(-c3ccc(O)cc3)cc(=O)c2c1O | 16.1 µM | > 100 µM |  | > 100 µM | > 100 µM | > 100 µM | > 100 µM | > 100 µM | > 100 µM | > 100 µM |  |  |  |  |  |  |  |  |  |  |
| CCCc1cc(=O)[nH]c(-n2nc(C)cc2C)n1 | > 100 µM | > 100 µM | 26.3 µM | > 100 µM | > 100 µM | > 100 µM | > 100 µM | > 100 µM | > 100 µM |  | 11.7 µM | 2.71 µM | 2.47 µM | 4.31 µM | 4.47 µM | 1.26 µM | 18.6 µM | 3.19 µM | 2.99 µM |  |
| OCC(O)C(Cl)CCl (stereo not drawn) |  | > 100 µM | > 100 µM | > 100 µM |  | > 100 µM | > 100 µM | > 100 µM | > 100 µM | > 100 µM |  |  |  |  |  |  |  |  |  |  |
| CN1CCN(CCOc2ccc(-c3cnc4c(-c5ccc(C(F)(F)F)cc5)cnn4c3)cc2)CC1 | 2.76 µM | 3.3 µM | 2.72 µM | 2.44 µM | 3.07 µM | 3.44 µM | 3.04 µM | 2.86 µM | 2.95 µM |  | 1.37 µM | 1.63 µM | 1.42 µM | 1.21 µM | 1.5 µM | 1.16 µM | 1.55 µM | 1.7 µM | 1.64 µM |  |
| O=C(O/C(=C(/N=Nc1ccccc1)c1ccccc1)c1ccccc1)c1ccccc1 |  | > 100 µM | > 100 µM | > 100 µM | > 100 µM |  | > 100 µM |  |  |  |  |  |  |  |  |  |  |  |  |  |
| O=c1cc(-c2ccccc2F)[nH]c2ccc(N3CCCC3)cc12 | > 100 µM | > 100 µM |  |  | > 100 µM |  | 0.0134 µM | > 100 µM | > 100 µM | > 100 µM | 7.32 µM | < 0.001 µM |  | 0.488 µM | > 100 µM | < 0.001 µM | < 0.001 µM | < 0.001 µM |  | > 100 µM |
| O=C1C2C3C=C4c5ccccc5N(c5ccccc5)C4(C2C(=O)N1c1ccc(Cl)cc1)[C@H]1C(=O)N(c2ccc(Cl)cc2)C(=O)[C@@H]31 (stereo partly drawn) | > 100 µM | > 100 µM | 76.3 µM | > 100 µM | > 100 µM |  | > 100 µM |  |  |  |  |  |  |  |  |  |  |  |  |  |
| CCCCC[C@H]1C/C=C2/C(=O)C=C[C@@H]2C/C=C\CCCC(=O)O[C@@H](CCCCC)C/C=C2/C(=O)C=C[C@@H]2C/C=C\CCCC(=O)O1 | 0.863 µM | 1.35 µM |  | 1.48 µM | 0.526 µM | 1.75 µM | 1.09 µM | 0.484 µM | 2.17 µM | 0.819 µM | 0.449 µM | 0.528 µM |  | 0.119 µM | 0.132 µM | 0.606 µM | 0.193 µM | 0.442 µM | 0.423 µM | 0.236 µM |
| COC1=CC(c2ccc[nH]2)=N/C1=C\c1[nH]c(C)c(C(=O)CCCCC(=O)NC(C)(C)C)c1C | 10.8 µM | 21.7 µM | 4.43 µM | 4.52 µM | 3.6 µM | 4.32 µM | 9.94 µM | 2.92 µM | 3.95 µM |  | 2.93 µM | 3.34 µM | 1.39 µM | 1.5 µM | 0.957 µM | 1.87 µM | 1.66 µM | 1.6 µM | 3.27 µM |  |
| COCC(O)Cn1ccnc1[N+](=O)[O-] (stereo not drawn) |  | > 100 µM | > 100 µM | > 100 µM |  | > 100 µM | > 100 µM |  |  |  |  |  |  |  |  |  |  |  |  |  |
| CCn1cc(C(=O)N/N=C/c2ccccc2)c(=O)c2cc(F)c(N3CCNC(C)C3)c(F)c21 (stereo not drawn) | 3.38 µM |  | 3.14 µM |  |  | 3.62 µM | 3.11 µM |  |  |  | 1.9 µM |  | 1.75 µM |  |  |  |  | 1.96 µM | 1.7 µM |  |
| Cc1ccc(SSc2ccc(C)cc2C(=O)O)c(C(=O)O)c1 | > 100 µM | > 100 µM | > 100 µM | > 100 µM | > 100 µM | > 100 µM | > 100 µM |  |  |  |  |  |  |  |  |  |  |  |  |  |
| COC(=O)c1ccccc1OCc1cc(=O)oc2ccc(C)cc12 | > 100 µM | > 100 µM | > 100 µM | > 100 µM |  | > 82.7 µM | 78.5 µM | > 100 µM | > 100 µM | > 100 µM |  |  |  |  |  |  |  |  |  |  |
| C1=CC=C2NCCCCCCCNC3=CC=CC=CC3=NCCCCCCCN=C2C=C1 |  | > 100 µM | > 100 µM | > 100 µM | 39.5 µM | > 100 µM | > 100 µM |  |  |  |  |  |  |  |  |  |  |  |  |  |
| COc1ccc(-c2nc(/C=N/Nc3cc(C)nc4ccc(Cl)cc34)c(C)o2)cc1 | 15.2 µM | 3.32 µM | 2.98 µM | 3.49 µM | 3.14 µM |  | 3.45 µM |  | 3.84 µM | 3.56 µM | 3.13 µM | 1.73 µM | 1.63 µM |  | 2.03 µM | 1.85 µM | 1.64 µM |  | 1.97 µM | 1.71 µM |
| O=c1[nH]nc2ccccc2c1Cc1ccccc1 | > 100 µM | > 100 µM | > 100 µM | > 100 µM |  | > 100 µM | > 100 µM |  |  |  |  |  |  |  |  |  |  |  |  |  |
